Test results from patent US20180235213A1, “PLANT HORMONE APPLICATION” (The State of Israel Ministry of Agriculture & Rural …, priority 2015, published 2018).
“Also recorded” adds a separate entry of the source.

Assays:
[1] = test system: Roses (Rosa Hybrida); assay: EGO10 collar application to roses; format: in vivo
Description: Three replicates on experiments were done in two commercial plots. EGO10 was applied at the indicated concentrations as a collar in Eppendorf tube (FIG. 24).
HPC+glycerin and EGO10 (25 or 50 μM), provided in rigid tubes, were applied as described above (Example 13) to roses (Rosa hybrid golden gate). 20 days following application of the formulation by the delivery device, the length of axillary buds (in centimeters) was measured and the number of lateral buds was counted.

[2] = test system: olive cuttings; assay: Plate bioassay of bud outgrowth in olive cuttings; format: in vivo, Olea europaea L.
Description: For the purpose of determining whether the active SL analogs may be used as effective repressors of shoot branching by application on the stem itself, a bioassay examining SL analogs effect on shoot branching in vitro was established. Olive seedlings were grown in greenhouse under controlled temperature of 23° C. Partitioned plates containing ½ Murashige and Skoog (MS) solidified with 1.5% w/v agar were prepared. After solidification, the center plastic area (2 cm) of the plate was removed by scalpel. Olive seedlings were cut between the second and fourth node, and the cuttings were surface-sterilized by 70% ethanol and 1% sodium hypochlorite treatment, and then placed on the plates containing the agar media. The SL analog EGO10 was mixed with ½MS in agar, cubes were cut (1.5 cm area) and positioned at the base of the cutting in the plates (FIG. 4A). Olive seedlings treated with acetone at the same concentrations used in the EGO10 treatments represented the experimental controls. Plates were sealed in two sides only by saran wrap in order to prevent accumulation of gases. The plates were positioned in an upright 90° position and incubated at 22° C. under a photoperiod of 16 hours light followed by 8 hours dark. Photographs were taken every 3 days until day 12 by binocular. Each treatment included eight replicates. […] Bud outgrowth was measured (FIG. 4C) by Image J software and the length of the bud minus its length at the first day following application was calculated. Means of replicates were subjected to statistical analysis by using the IMP statistical package.
The ability of EGO10, applied to olive seedling cuttings through the bark of the stem, to reduce bud outgrowth was examined. An agar tube containing EGO10 was placed on the bark of the cutting (FIG. 6A). Additionally, for increased penetration of the hormone analog, the bark was scratched and the ability of EGO10 to reduce bud outgrowth in comparison to EGO10 application to non-scratched bark was tested.
As a next step in the development of SL application technology, different substances that can serve as media supporting the diffusion of SLs though the bark of plants were examined. As agar usually contains nutritional compounds, bacteria and fungi can easily contaminate agar cubes. Therefore, other substances were examined, as described hereinbelow. Experiments were performed similarly to those described in Example 3 above, by application of EGO10 in different media on the cutting bark, in plates. Bud outgrowth was monitored as described above.
Based on the results above, 30% HPC were mixed with two different concentrations of EGO10; 5 and 10 μM, and applied on the stem of olive seedling (FIG. 10). Bud outgrowth was monitored as described above and the results were compared to those obtained upon using agar cubes (described in Example 3), which served as a positive control.
In an attempt to improve HPC suitability to the examined system, HPC was mixed with glycerin in the ratio of 3:1. Glycerin, as a known humectant, has the capability to moist materials. In exemplary procedures, 5 μM EGO10 were added to the HPC and glycerin mixture, and then placed on the bark of olive cuttings. Bud outgrowth was monitored as described above.
A number of additional possible substances suitable as media for EGO10 application were screened, including polyvinyl acetate (PVAc), polyvinyl pyrrolidone (PVP) and hydroxy ethyl cellulose (HEC). The polymers were used at concentrations of 30% in water, however, as 30% PVP was not solid, it could not be tested. Accordingly, HEC and PVAc were examined for their ability to support EGO10 activity. Bud outgrowth was calculated as described above.

[3] = test system: Koroneiki olives; assay: EGO10 collar and granules application to Koroneiki olives; format: in vivo, Olea europaea L.; details: collar of 50 μM
Description: Since Koroneiki olives are one of the most abundant cultivars worldwide, the effect of application of collar of 50 μM and granules that release 3×10^−8 M on development of side branches in this cultivar was examined.

[4] = test system: Pomegranate; assay: EGO10 collar application to pomegranate in commercial nursery; format: in vivo, Punica granatum; details: 50 μM as collar in Eppendorf tubes
Description: Two replicates on experiments were performed in commercial nursery.

[5] = test system: Picual olives; assay: Application of strigolactone analogs by irrigation to olive seedlings; format: in vivo, Olea europaea L.; details: irrigation to roots twice a week for 6 weeks, 0.03 and 0.3 μM, vs control
Description: The effect of application of various analogues of strigolactone (SL) on olives, given to roots by irrigation was examined. Three different SL analogs; […] The seedlings were rooted from cuttings and hardened, and were about 6 months old at the time of the experiment. Growth soil mixture was used as in the nursery. Each strigolactone analog was dissolved in acetone to give a 5.6 mM solution. This solution was then further diluted with distilled water to 0.03 and 0.3 μM. The diluted solution was injected to the roots twice a week for 6 weeks, and subsequently all the growing buds were counted. For each treatment (treated and control groups) 10 plants were measured. Experiments were repeated three times.

[6] = test system: Tomato (Shirez, Ikram cultivars); assay: EGO10 collar, irrigation and granules application to greenhouse tomato; format: in vivo, Solanum lycopersicum; details: for side branches: collar of 500 μM; for side branch weight: collars 25 and 50 μM
From the text: Greenhouse tomato (Shirez, Ikram and other cultivars) are one of the crops that necessitate vast investment in the constant trimming of side branches. Hand labor is needed for this trimming, on an everyday basis, to avoid significant yield loses. The constant trimming is a cause for infection at trimming sites. […] For these experiments two cultivars of greenhouse tomato were used, Ikram and Shirez, both vigorously producing side branches that should be trimmed under commercial growth conditions.
Also, treatments that include irrigation with 3×10^−6 M (once a week for 6 weeks, 5 ml) and granules application (controlled release at that same concentration of 3×10^−6 M) were applied. Each treatment consisted of 20 plants, blocks of 4 plants were randomly distributed in the greenhouse.
Following, and to increase the possible effect of EGO10 on tomato branching, additional experiment was performed with tomato plants were treated with collar of 500 μM EGO10.

CC1=C[C@H](O/C=C2\Cc3c(n(C)c4ccccc34)C2=O)OC1=O [EGO10]
lateral branching ([1]; 25 or 50 μM with HPC+glycerin, collar in rigid tubes, 20 days): clear tendency of reduction of lateral branching
development of water branches ([1]; collar, 25 or 50 μM): did not hinder development
bud outgrowth ([2]; 5 μM in 30% HEC on the bark): did not
bud outgrowth ([2]; 5 μM in 30% PVAc on the bark): supported EGO10 activity of bud outgrowth inhibition
bud outgrowth ([2]; 5 μM in HPC mixed with glycerin (3:1) on the bark, until day 12): inhibited bud outgrowth throughout the experimental period
bud outgrowth ([2]; 5 μM in PVA:HEC (2:1) on the bark): did not sufficiently support EGO10 ability to act to inhibit bud outgrowth
bud outgrowth ([2]; 5 μM in PVA:PVP (2:1) on the bark): did not sufficiently support EGO10 ability to act to inhibit bud outgrowth
bud outgrowth ([2]; 5 μM in agar cube at the base of the cutting, day 12, vs acetone control): marked reduction in bud outgrowth
bud outgrowth ([2]; 5 μM in agar cube on the bark, 96, 168 and 264 h, vs acetone control): significant reduction in bud outgrowth; also recorded: reduced bud outgrowth throughout the entire experimental period
bud outgrowth ([2]; 5 and 10 μM in 30% HPC on the stem): reduced bud outgrowth until day 4 post application
side branches development [3]: effective in preventing side branches development
number of axillary branches [4]: marked and significant reduction in the number of axillary branches
number of growing buds / lateral branches [5]: repressing effect on axillary branch growth similar to that of GR24
yield determined as number of fruit ([6]; Ikram, EGO10 treated plants): increased
side branches ([6]; Ikram): significant reduction in side branches
side branch weight ([6]; Ikram): reduced to some extent branching
side branches ([6]; Shirez): did not respond
side branch weight ([6]; Shirez, irrigation, granules): did not change significantly branching
